Patent US20260076948A1, “TREATMENT OF DIABETIC RETINOPATHY USING ENDOTHELIN RECEPTOR ANTAGONISTS” (Perfuse Therapeutics, Inc., priority 2019, published 2026)
“Also recorded” adds a separate entry of the source.

Columns and labels:
[1] = test system: ETA/ETB receptor; conditions: background statement; cited from earlier work
[2] = biological target: T1, ETA (Homo sapiens, UniProt P25101); assay: Functional potency for ETA receptor; assay type: biochemical
T1 sequence (P25101 21-427): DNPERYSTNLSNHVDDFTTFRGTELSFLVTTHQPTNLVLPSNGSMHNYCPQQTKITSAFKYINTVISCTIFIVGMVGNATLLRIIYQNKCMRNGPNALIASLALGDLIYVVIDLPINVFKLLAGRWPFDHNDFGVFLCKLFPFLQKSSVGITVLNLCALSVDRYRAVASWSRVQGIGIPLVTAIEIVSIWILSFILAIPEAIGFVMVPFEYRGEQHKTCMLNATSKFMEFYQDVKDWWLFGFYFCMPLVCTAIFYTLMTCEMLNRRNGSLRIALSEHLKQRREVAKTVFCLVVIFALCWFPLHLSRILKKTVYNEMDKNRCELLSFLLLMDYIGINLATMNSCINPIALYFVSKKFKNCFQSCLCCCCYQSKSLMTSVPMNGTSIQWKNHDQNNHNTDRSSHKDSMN
Excerpt: (§1) In the above table, the physicochemical data, e.g., solubility, were obtained following standard protocols known in the field (see, e.g., Reis et al., Mini Rev Med Chem., 2010, 10(11):1071-6; Avdeef et al., Expert Opin Drug Metab Toxicol., 2005, 1(2):325-42; Bharate et al., Comb Chem High Throughput Screen., 2016, 19(6):461-9; and Jain et al., J Pharm Biomed Anal., 2013, 86:11-35.); and the biochemical data, i.e., potency for ETA/ETB, were obtained following the protocols known in the field (see, e.g., Kirkby et al., Br J Pharmacol., 2008, 153(6):1105-19; and Maguire et al., Br J Pharmacol., 2014, 171(24):5555-72.).

[3] = test system: Morrison's rat model of glaucoma (elevated IOP); assay: Morrison's rat model of glaucoma (RGC counts, PERG); assay type: in vivo, Brown Norway rats; conditions: topical eye drops 100 μg per dose, five days a week, four weeks
Excerpt: Adult male and female retired breeder Brown Norway rats (approximate age groups of 8 to 11 months) were obtained from Envigo (Indianapolis, IN). Baseline IOP measurements and pattern electroretinogram (PERG) amplitudes were collected prior to the surgery for elevation of IOP (to ensure that the IOP and PERG amplitudes were in the expected range of values). IOP was elevated in one eye (left eye) of the rats, while the corresponding right eyes served as contralateral controls. The Morrison method to elevate IOP in rats was carried out by injection of 50 μL. of hypertonic saline through the episcleral veins to sclerose the trabecular meshwork. IOP was measured twice a week throughout the entire duration of the experiment. […] After detecting an elevation of IOP for two consecutive days, topical administration of eye drops (20 μL (100 μg) per dose of the tested compounds in the IOP elevated eye) was commenced and carried out for five days a week for a total of four weeks. In the 4th week of treatment, PERG analysis was carried out and rats were sacrificed by an overdose of pentobarbital (Fatal-Plus). Aqueous humor was collected from the rat eyes, frozen and shipped for analysis. Retinal flat mounts were prepared, immunostained with the RGC marker, Brn3a antibody and surviving RGCs were counted in two eccentricities (central and peripheral).
For this study, the Morrison's model was used to induce ocular hypertension in adult male retired breeder Brown Norway rats as previously described by Morrison et al., (Morrison J C, Moore C G, Deppmeier L M, Gold B G, Meshul C K, Johnson E C. A rat model of chronic pressure-induced optic nerve damage. Exp Eye Res. 1997; 64(1):85-96).
The immunostained retinal flat mounts were obtained to measure the retinal ganglion cell (RGC) counts. To obtain immunostained retinal flat mounts, the animals were euthanized after the treatments and then their eyes were enucleated. The eye cups were fixed overnight at 4° C. in 4% paraformaldehyde (PFA) and retinal flat mounts were prepared for collecting images. The retinal ganglion cell (RGC) counting was conducted using the images of immunostained retinal flat mounts. The images were uploaded to ImageJ, a photo editor designed for biology research (Rasband, 1997-2018) and the labeled retinal ganglion cells were counted manually in two eccentricities (central and peripheral).
Pattern ERG (PERG) was used to assess the RGC function. […] Briefly, PERG signals were acquired from a DTL-plus electrode placed on the lower part of the corneal surface and the PERG waves were analyzed using the EMWIN software (LKC). The difference between the amplitude of the major positive (P1) and negative (N2) waves were calculated to decipher the PERG amplitude.

[4] = test system: oxygen-induced ischemic retinopathy (OIR); assay: Mouse oxygen-induced ischemic retinopathy (OIR), retinal hypoxia area; assay type: in vivo; conditions: OIR mice, IVT single dose 1 μL of 2 μg/μL; 24, 48, 96 hours
Procedure: A relevant mice model was used to obtain the retinal hypoxia area in mice with oxygen-induced ischemic retinopathy (OIR) at different time points, as shown in FIG. 4. […] Briefly, at P17, mice with OIR (n=60) were given an injection of ET-1 antagonist (1 μL of 2 μg/μL Edonentan formulation, single dose) in one eye and PBS in the fellow eye. At 24, 48, and 96 hours after injection, mice (n=10 for each time point) were euthanized and the retinas were dissected and stained with GSA lectin and hypoxyprobe. The area of NV, area of retinal hypoxia, and the area of retinal nonperfusion were determined for each retina.

[5] = Permeability (PAMPA); assay type: in vitro ADME; conditions: PAMPA log Pe and PSA
Excerpt: as §1

[6] = Pharmacokinetics after topical administration in the rabbit; assay type: in vivo, Dutch-belted rabbits; conditions: single eye drop 100 μg, 10 minutes, 2 and 7 hours
Procedure: To determine the pharmacokinetic properties of Edonentan following topical administration in the rabbit, rabbits (Dutch-belted rabbits) received an eye drop in both eyes (100 μg of Edonentan, 35 μL dose volume/eye). After the administrations, the animals (N=2) were euthanized at different time points (e.g. 10 minutes (immediately after pot-dose), 2 and 7 hours) and tissues were collected for analysis. List of tissues collected include plasma, retina, vitreous humor and bulbar conjunctiva.

## Cc1onc(NS(=O)(=O)c2ccccc2-c2ccc(-c3ncco3)cc2CN(C)C(=O)CC(C)(C)C)c1C [Edonentan, N-[[2′-[[(4,5-dimethyl-3-isoxazolyl)amino]sulfonyl]-4-(2-oxazolyl)[1,1′-biphenyl]-2-yl]methyl]-N,3,3-trimethylbutanamide]
[1]
  Endothelin receptor antagonism, description in words: highly selective and very potent endothelin A receptor antagonist
[2]
  Functional potency for ETA and ETB receptors, rating in words: High potency
[2]; ETA vs ETB
  Specificity ETA versus ETB, rating in words: High specificity
[3]
  Pattern electroretinogram (PERG) changes, RGC function: maintained RGC function
  Retinal ganglion cell (RGC) counts in the peripheral retina: prevented RGC loss
[4]
  Retinal hypoxia area: improvement of retinal hypoxia; also recorded: improved retinal hypoxia
[5]
  Permeability, rating in words: Mid-High
[6]
  Tissue exposure after topical administration (plasma, retina, vitreous humor, bulbar conjunctiva): detected in all tissues examined at all timepoints; also recorded: penetrate through ocular layers
